Results on 1 compound are retold here after patent US5843902A, “Methods for treating prostate cancer with LHRH antagonists” (Praecis Pharmaceuticals Incorporated, priority 1996, dated 1998).

Structures are written as SMILES. Square brackets hold non-standard residues; d marks the D form. Peptide text beside a SMILES is read from it. dPhe(4-Cl) = N[C@H](Cc1ccc(Cl)cc1)C(=O)O; d2Nal = N[C@H](Cc1ccc2ccccc2c1)C(=O)O; Lys(iPr) = CC(C)NCCCC[C@H](N)C(=O)O; NMeY = CN[C@@H](Cc1ccc(O)cc1)C(=O)O; d3Pal = N[C@H](Cc1cccnc1)C(=O)O

For experiment [1], the system named is adult male rats. The experiment is described as follows: Plasma testosterone in adult male rats given PPI-149 by osmotic pump, then leuprolide. The format is in vivo, rat. The conditions noted are these: for prevention of leuprolide-induced testosterone surge / suppression of plasma testosterone levels: rat. The method, then:
In a first series of experiments, adult male rats were first administered an LHRH antagonist having the structure:
(referred to herein as PPI-149). PPI-149 was administered via a subcutaneous continuous osmotic minipump (e.g., the Alzet pump, commercially available from Alza, Palo Alto, Calif.) at a dose of 15 μg/kg/day or 50 μg/kg/day. PPI-149 administration continued for a total of 15-28 days according to several different protocols. A second pump releasing leuprolide (trade name: Lupron®) at 1.8 μg/kg/day was implanted such that there was an overlap of 0, 1 or 7 days with the previously-implanted pump releasing PPI-149.
In the experiment shown in FIG. 1, PPI-149 (at 15 μg/kg/day or 50 μg/kg/day) was administered by osmotic pump for 28 days and then this pump was removed and a second pump administering leuprolide (at 1.8 μg/kg/day) was implanted such that there was no overlap between the antagonist and agonist treatment. Plasma testosterone levels (in ng/ml) were measured during the prolonged administration of PPI-149 alone and following replacement of the PPI-149 pump with the leuprolide pump.
In the experiment shown in FIG. 2, PPI-149 (at 50 μg/kg/day) was administered by osmotic pump for 15 days and then a second pump administering leuprolide (at 1.8 μg/kg/day) was implanted such that there was one day of overlap between the antagonist and agonist treatment (i.e., the first PPI-149-releasing pump was removed one day after implantation of the second leuprolide-releasing pump). Plasma testosterone levels were measured during the prolonged administration of PPI-149 alone and following removal of the PPI-149 pump when leuprolide alone was administered.
In the experiment shown in FIG. 3, PPI-149 (at 15 μg/kg/day or 50 μg/kg/day) was administered by osmotic pump for 28 days and then a second pump administering leuprolide (at 1.8 μg/kg/day) was implanted such that there was one day of overlap between the antagonist and agonist treatment (i.e., the first PPI-149-releasing pump was removed one day after implantation of the second leuprolide-releasing pump). Plasma testosterone levels were measured during the prolonged administration of PPI-149 alone and following removal of the PPI-149 pump when leuprolide alone was administered.
In the experiment shown in FIG. 4, PPI-149 (at 15 μg/kg/day or 50 μg/kg/day) was administered by osmotic pump for 28 days and then a second pump administering leuprolide (at 1.8 μg/kg/day) was implanted such that there were seven days of overlap between the antagonist and agonist treatment (i e., the first PPI-149-releasing pump was removed seven days after implantation of the second leuprolide-releasing pump). Plasma testosterone levels were measured during the prolonged administration of PPI-149 alone and following removal of the PPI-149 pump when leuprolide alone was administered.

In experiment [2] the test system is male cynomolgus monkeys. The experiment in a line: Plasma testosterone in male cynomolgus monkeys given PPI-149 by osmotic pump, then depot leuprolide. The format is in vivo. As to conditions: cynomolgus monkey. The method, then:
In a second series of experiments, male cynomolgus monkeys were administered the LHRH antagonist PPI-149 via a subcutaneous continuous osmotic minipump (Alzet pump; Alza, Palo Alto, Calif.) at a dose of 0, 30, 100 or 300 μg/kg/day for a period of 28 days. On day 28, pumps were removed and monkeys were administered a single intramuscular dose of the depot, sustained-release (one-month) formulation of Luprong, equivalent to 0.16 mg/kg. This dose of leuprolide is 1.6 times that used in the treatment of prostate cancer in humans (0.1 mg/kg) and 3.2 times that used in the treatment of endometriosis (0.05 mg/kg).

Where [3] appears, read: PPI-149 50 μg/kg/day osmotic pump 15 days, one day overlap with leuprolide 1.8 μg/kg/day (FIG. 2).
Where [4] appears, read: PPI-149 50 μg/kg/day osmotic pump 28 days, one day overlap with leuprolide 1.8 μg/kg/day (FIG. 3).
Setting [5] is: PPI-149 50 μg/kg/day osmotic pump 28 days, seven days overlap with leuprolide 1.8 μg/kg/day (FIG. 4).
Setting [6] is: PPI-149 50 μg/kg/day s.c. osmotic pump 28 days, no overlap with leuprolide 1.8 μg/kg/day (FIG. 1).

As to `CC(=O)N[C@H](Cc1ccc2ccccc2c1)C(=O)N[C@H](Cc1ccc(Cl)cc1)C(=O)N[C@H](Cc1cccnc1)C(=O)N[C@@H](CO)C(=O)N(C)[C@@H](Cc1ccc(O)cc1)C(=O)N[C@H](CC(N)=O)C(=O)N[C@@H](CC(C)C)C(=O)N[C@@H](CCCCNC(C)C)C(=O)N1CCC[C@H]1C(=O)N[C@H](C)C(N)=O` [PPI-149, Ac-D-Nal^1,4-Cl-D-Phe^2, D-Pal^3, N-Me-Tyr^5, D-Asn^6, Lys(iPr)^8, D-Ala^10 -LHRH] (Ac-[d2Nal][dPhe(4-Cl)][d3Pal]S[NMeY][dN]L[Lys(iPr)]P[dA]-NH2), the “prevention of testosterone surge induced by LHRH agonist (summary of FIGS. 1-4)” value in experiment [1] (adult male rats, PPI-149 50 μg/kg/day, 0, 1 or 7 days) is “can prevent the testosterone surge induced by LHRH agonist administration”. Besides, the “prevention of leuprolide-induced testosterone surge” value in experiment [1] (setting [3]), in experiment [1] (setting [4]), in experiment [1] (setting [5]) and in experiment [1] (setting [6]) was “prevented the leuprolide-induced testosterone surge” in each case. The “suppression of plasma testosterone levels” value in experiment [1] (setting [3]), in experiment [1] (setting [4]), in experiment [1] (setting [5]) and in experiment [1] (setting [6]) was “suppressed plasma testosterone levels to castrate levels” in each case. In experiment [2] (PPI-149 100 μg/kg/day 28 days, pump removed, single i.m. one-month depot leuprolide equivalent to 0.16 mg/kg on day 28 (FIG. 5)), the “blockade of testosterone surge from depot Lupron” value is “complete blockade of the testosterone surge”. Further, in experiment [2] (PPI-149 100 μg/kg/day s.c. osmotic pump 28 days (FIG. 5)), the “medical castration (plasma testosterone)” value is given as “rapid, complete medical castration within the first two days of treatment”.
